Assay [1] has as its target DNA (cytosine-5)-methyltransferase 1 (Homo sapiens) (UniProt P26358). Description: Inhibition of human DNMT1 using poly(dI-dC) and SAM as substrate at 10 uM by radiometric Hotspot assay.
The target in assay [2] is T1, von Hippel-Lindau disease tumor suppressor/Histone-lysine N-methyltransferase, H3 lysine-79 specific (Homo sapiens, UniProt Q8TEK3+P40337). The experiment in a line: PROTAC activity at VHL/DOT1L in mixed-lineage leukemia rearranged (MLL-r) human MV4-11 cells assessed as induction of DOTIL degradation by measuring fold change in H3K79Me2 level at 3 uM incubated for 1 hr by western blot analysis relative to control. Type of assay: cell-based.

Assay [3] deals with T2, Histone-lysine N-methyltransferase EHMT1 (Homo sapiens) (UniProt Q9H9B1).
T2 sequence (whole entry): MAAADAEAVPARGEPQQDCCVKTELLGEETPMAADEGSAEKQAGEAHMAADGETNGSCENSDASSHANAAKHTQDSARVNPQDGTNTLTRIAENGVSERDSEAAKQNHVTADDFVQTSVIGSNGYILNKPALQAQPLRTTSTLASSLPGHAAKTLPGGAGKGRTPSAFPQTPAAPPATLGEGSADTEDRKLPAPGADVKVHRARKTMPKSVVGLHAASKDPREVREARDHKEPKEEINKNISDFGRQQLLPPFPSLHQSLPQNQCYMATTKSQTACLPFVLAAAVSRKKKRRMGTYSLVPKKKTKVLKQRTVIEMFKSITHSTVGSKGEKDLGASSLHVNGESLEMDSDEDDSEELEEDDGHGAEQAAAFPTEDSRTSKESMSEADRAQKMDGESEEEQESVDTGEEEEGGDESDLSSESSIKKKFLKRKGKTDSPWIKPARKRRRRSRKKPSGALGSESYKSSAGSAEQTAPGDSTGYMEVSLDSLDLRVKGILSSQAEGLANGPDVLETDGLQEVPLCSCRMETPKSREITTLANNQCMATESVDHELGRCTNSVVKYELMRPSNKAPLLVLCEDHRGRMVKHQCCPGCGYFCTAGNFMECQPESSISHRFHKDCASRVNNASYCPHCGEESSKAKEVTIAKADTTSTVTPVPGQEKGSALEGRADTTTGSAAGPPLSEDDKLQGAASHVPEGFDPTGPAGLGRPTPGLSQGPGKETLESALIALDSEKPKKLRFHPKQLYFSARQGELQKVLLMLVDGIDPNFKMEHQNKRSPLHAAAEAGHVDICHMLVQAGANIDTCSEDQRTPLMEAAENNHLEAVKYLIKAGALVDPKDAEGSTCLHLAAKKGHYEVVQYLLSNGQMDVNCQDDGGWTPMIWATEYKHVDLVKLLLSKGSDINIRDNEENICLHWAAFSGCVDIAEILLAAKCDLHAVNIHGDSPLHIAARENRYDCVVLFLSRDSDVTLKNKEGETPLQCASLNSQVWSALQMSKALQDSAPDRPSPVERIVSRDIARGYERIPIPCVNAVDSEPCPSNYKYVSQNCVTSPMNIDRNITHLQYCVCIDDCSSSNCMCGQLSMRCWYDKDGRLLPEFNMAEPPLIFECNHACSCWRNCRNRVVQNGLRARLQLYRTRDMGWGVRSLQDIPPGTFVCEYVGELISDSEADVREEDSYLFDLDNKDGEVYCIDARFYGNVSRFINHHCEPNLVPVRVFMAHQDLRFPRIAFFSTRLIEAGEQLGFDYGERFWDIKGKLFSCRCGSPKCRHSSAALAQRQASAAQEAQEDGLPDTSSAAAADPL
Description: Inhibition of human GLP using Histone H3 and SAM as substrate at 10 uM by radiometric Hotspot assay.

For assay [4], the target named is T3, Histone-arginine methyltransferase CARM1 (Homo sapiens) (UniProt Q86X55).
T3 sequence (whole entry): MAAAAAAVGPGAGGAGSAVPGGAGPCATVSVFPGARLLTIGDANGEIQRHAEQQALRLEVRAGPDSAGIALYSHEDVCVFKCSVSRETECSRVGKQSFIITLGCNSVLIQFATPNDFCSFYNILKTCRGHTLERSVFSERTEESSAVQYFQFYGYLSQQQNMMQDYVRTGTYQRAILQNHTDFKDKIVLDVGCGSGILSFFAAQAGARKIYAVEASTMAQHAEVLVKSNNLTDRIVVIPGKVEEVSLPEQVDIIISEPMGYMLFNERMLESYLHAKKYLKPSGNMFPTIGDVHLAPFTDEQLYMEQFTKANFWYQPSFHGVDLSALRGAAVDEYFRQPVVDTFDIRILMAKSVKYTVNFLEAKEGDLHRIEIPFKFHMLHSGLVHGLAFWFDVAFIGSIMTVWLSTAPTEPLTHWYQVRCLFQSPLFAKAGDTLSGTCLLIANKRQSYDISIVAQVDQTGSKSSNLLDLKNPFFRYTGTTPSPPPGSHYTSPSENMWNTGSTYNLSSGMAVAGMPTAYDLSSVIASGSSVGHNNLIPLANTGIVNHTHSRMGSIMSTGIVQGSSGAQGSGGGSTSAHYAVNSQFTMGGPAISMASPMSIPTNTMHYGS
Description: Inhibition of human PRMT4 using histone H3 and SAM as substrate at 10 uM by radiometric Hotspot assay.

Assay [5] concerns the target T1, von Hippel-Lindau disease tumor suppressor/Histone-lysine N-methyltransferase, H3 lysine-79 specific. Description: PROTAC activity against VHL/DOT1L in mixed-lineage leukemia rearranged (MLL-r) human THP-1 cells assessed as induction of DOT1L degradation at 3 uM preincubated with proteasome inhibitor, MG-132 for 1 hr followed by incubation with compound for 4 hrs by western blot analysis. Type of assay: cell-based.

Assay [6] deals with Histone-lysine N-methyltransferase 2A (Homo sapiens) (UniProt Q03164). Description: Inhibition of human MLL1 using nucleosomes and SAM as substrate at 10 uM by radiometric Hotspot assay.
Assay [7] has as its target T1, von Hippel-Lindau disease tumor suppressor/Histone-lysine N-methyltransferase, H3 lysine-79 specific. The experiment in a line: PROTAC activity at VHL/DOT1L in mixed-lineage leukemia rearranged (MLL-r) human MV4-11 cells assessed as induction of DOTIL degradation by measuring fold change in DOT1L protein level at 3 uM incubated for 24 hrs by western blot analysis relative to control. Type of assay: cell-based. On the technique in general: In western blotting, separated proteins are transferred to a membrane and probed.

Calls of active or inactive are those of the source. No cut-off for these calls is given here.

T1 sequence (P40337 whole entry, looked up): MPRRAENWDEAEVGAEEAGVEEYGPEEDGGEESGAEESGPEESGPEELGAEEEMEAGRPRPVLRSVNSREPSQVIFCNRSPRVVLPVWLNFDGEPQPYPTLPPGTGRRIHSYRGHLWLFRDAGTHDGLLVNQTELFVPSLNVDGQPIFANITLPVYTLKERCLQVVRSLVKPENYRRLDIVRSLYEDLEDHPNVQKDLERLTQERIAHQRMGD
T1 sequence (Q8TEK3 whole entry, looked up): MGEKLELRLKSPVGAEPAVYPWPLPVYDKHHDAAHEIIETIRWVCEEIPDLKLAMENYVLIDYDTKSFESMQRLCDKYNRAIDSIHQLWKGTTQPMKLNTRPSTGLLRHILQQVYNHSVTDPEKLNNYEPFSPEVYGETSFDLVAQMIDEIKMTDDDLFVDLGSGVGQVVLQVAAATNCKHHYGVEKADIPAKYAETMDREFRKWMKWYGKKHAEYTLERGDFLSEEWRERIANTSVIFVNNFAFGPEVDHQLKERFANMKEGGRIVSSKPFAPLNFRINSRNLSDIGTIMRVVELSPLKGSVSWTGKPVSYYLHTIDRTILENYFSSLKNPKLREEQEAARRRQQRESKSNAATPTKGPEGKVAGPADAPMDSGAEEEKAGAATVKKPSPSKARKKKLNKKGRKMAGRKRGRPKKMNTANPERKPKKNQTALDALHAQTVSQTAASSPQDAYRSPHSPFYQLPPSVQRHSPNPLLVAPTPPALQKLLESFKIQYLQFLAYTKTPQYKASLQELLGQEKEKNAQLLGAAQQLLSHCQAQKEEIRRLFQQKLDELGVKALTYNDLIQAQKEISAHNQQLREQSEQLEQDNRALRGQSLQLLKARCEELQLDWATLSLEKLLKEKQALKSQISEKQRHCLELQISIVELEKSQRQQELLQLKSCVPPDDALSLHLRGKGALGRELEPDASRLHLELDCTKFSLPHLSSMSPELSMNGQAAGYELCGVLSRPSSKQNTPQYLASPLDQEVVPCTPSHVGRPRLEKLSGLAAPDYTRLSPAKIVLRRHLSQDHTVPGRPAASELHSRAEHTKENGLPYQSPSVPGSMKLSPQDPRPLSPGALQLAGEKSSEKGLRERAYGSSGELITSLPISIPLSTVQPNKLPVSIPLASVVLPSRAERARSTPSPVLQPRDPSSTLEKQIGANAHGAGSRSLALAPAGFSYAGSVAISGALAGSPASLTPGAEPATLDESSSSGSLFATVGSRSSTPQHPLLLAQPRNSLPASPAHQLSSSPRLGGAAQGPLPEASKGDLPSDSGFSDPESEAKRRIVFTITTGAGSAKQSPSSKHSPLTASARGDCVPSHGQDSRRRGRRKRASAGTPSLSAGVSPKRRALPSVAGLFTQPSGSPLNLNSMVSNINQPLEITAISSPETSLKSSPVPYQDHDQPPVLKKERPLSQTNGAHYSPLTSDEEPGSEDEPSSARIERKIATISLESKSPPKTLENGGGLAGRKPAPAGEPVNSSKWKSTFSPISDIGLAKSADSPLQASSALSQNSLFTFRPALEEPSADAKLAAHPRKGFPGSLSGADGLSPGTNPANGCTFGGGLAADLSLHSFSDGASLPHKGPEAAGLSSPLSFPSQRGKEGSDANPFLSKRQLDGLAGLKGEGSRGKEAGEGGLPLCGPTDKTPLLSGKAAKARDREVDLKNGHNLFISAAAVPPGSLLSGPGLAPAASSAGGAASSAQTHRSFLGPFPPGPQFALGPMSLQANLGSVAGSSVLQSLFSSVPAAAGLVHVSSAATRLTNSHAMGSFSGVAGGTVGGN
Sequence of DNA (cytosine-5)-methyltransferase 1 (Homo sapiens) (P26358 whole entry): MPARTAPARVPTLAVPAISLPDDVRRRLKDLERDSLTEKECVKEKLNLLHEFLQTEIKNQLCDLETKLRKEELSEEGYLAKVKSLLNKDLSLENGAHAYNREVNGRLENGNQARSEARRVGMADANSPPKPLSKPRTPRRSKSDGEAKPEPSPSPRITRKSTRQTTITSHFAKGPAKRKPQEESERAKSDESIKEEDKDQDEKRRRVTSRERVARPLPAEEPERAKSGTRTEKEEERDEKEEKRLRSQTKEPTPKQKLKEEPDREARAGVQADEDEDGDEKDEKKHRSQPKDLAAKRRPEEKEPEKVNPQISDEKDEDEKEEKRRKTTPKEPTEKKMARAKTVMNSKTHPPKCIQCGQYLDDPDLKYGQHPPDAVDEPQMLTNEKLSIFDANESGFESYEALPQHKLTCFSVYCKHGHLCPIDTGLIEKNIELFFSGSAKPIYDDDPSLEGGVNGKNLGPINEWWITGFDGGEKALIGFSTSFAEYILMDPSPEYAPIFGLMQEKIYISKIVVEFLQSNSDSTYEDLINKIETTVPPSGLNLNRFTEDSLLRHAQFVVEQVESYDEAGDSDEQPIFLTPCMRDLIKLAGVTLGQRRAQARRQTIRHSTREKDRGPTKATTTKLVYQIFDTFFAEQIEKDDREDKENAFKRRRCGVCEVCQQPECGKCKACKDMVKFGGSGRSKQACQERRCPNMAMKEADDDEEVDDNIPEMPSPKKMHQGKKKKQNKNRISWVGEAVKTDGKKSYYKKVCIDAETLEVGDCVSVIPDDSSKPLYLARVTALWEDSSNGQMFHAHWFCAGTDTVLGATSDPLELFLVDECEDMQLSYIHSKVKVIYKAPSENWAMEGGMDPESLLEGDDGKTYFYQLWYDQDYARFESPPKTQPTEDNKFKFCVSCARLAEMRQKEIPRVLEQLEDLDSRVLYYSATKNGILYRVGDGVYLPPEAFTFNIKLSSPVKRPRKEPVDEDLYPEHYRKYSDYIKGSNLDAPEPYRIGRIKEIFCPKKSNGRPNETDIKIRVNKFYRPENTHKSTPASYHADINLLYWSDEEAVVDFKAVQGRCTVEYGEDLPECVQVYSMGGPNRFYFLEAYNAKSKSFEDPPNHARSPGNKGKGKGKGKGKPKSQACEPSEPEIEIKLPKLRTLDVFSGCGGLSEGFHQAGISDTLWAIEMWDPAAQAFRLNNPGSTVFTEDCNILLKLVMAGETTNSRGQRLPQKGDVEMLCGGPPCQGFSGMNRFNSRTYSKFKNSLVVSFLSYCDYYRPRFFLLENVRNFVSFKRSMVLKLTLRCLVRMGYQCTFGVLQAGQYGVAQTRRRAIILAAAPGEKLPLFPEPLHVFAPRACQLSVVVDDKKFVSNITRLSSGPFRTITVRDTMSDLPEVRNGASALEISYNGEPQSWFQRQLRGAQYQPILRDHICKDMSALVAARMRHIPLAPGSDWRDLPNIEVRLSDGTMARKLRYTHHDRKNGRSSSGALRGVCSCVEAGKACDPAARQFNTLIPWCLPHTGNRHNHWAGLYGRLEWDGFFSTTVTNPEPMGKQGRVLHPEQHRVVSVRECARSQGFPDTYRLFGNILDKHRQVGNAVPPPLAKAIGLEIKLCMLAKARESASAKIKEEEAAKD

For the compound `Cc1ncsc1-c1ccc([C@H](CC(=O)NCCCCCCNC(=O)COc2nc(N)nc(Nc3cc(S(N)(=O)=O)ccc3N[C@@H](c3cccc4c3OC(F)(F)O4)c3ncccc3Cl)n2)NC(=O)[C@@H]2C[C@@H](O)CN2C(=O)[C@@H](NC(=O)C2(F)CC2)C(C)(C)C)cc1`, the inhibition entry in assay [1], in assay [3], in assay [4] and in assay [6] was “inactive” each time. For the same compound, the results for the fold change (FC) in assay [2] and in assay [7] were 0.34 and 0.07, respectively. In assay [5], the outcome was inactive.

These data come from ChEMBL document CHEMBL6182889, “Discovery of the first-in-class DOT1L PROTAC degrader” (Eur J Med Chem, 2025).
